Consider 8 molecules from PubChem BioAssay (NCI).

Test systems include U251 CNS; RPMI-8226 leukemia; HT29 colon; SNB-19 CNS; BT-549 breast; OVCAR-3 ovarian; SNB-75 CNS; SW-620 colon; UACC-62 melanoma; SK-MEL-2 melanoma; MDA-MB-231 breast; SF-295 CNS; A549 NSCLC; NCI/ADR-RES ovarian; HCC-2998 colon; HL-60(TB) leukemia; SK-MEL-28 melanoma; MDA-N.
Common to all, as to assay: growth of human tumour cells (NCI), 48 h

Each structure is given as a SMILES string.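 Assay format: 96-well plates, 48-hour exposure. TGI marks complete inhibition of growth.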 Peptide text beside a SMILES is read from it. * marks the point of attachment. Cbz = O=C(OCc1ccccc1)* Where only a bound is given, the exact number is not on record here.

Take `O=C1CCCc2cc3c(cc21)CC1(C3)Cc2cc3c(cc2C1)C(=O)CCC3`: the TGI is 36.5 µM with U251 CNS; 15.6 µM in the assay on RPMI-8226 leukemia; 7.41 µM in the assay with HT29 colon; > 100 µM in the assay with SNB-19 CNS; 90.2 µM in the assay on BT-549 breast; 7.2 µM in the assay on OVCAR-3 ovarian. For the same molecule, the TGI was > 100 µM in the assay on SNB-75 CNS; > 100 µM in the assay with SW-620 colon; 30.9 µM with UACC-62 melanoma; 15.6 µM in the assay on SK-MEL-2 melanoma; 21.6 µM in the assay on MDA-MB-231 breast; > 56 µM with SF-295 CNS. For the same molecule, the TGI in the assay with A549 NSCLC stood at 53.8 µM; in the assay with NCI/ADR-RES ovarian it was 6.65 µM; in the assay on HCC-2998 colon it was 10.4 µM; in the assay with HL-60(TB) leukemia, 4.6 µM; in the assay with SK-MEL-28 melanoma it was 41.7 µM.
In the case of `CCOC(=O)CCC(NC(=O)CNC(=O)CNC(=O)C(CCC(=O)OCC)NC(=O)C(CCC(=O)OCC)NC(=O)C(CCC(=O)OCC)NC(=O)OCc1ccccc1)C(=O)NC(CCC(=O)OCC)C(=O)NC(CCC(=O)OCC)C(=O)OCC` (centres undefined) (Cbz-E(OEt)E(OEt)E(OEt)GGE(OEt)E(OEt)E(OEt)-OEt; configuration not given here), the TGI in the assay on U251 CNS, with RPMI-8226 leukemia, with HT29 colon, in the assay with SNB-19 CNS, in the assay on SNB-75 CNS and in the assay on SW-620 colon was > 75 µM each time. Moreover, the TGI in the assay on MDA-N, in the assay on UACC-62 melanoma, with SK-MEL-2 melanoma, with MDA-MB-231 breast, in the assay on SF-295 CNS and in the assay on A549 NSCLC was > 75 µM in each case. Also, the TGI with NCI/ADR-RES ovarian and in the assay with SK-MEL-28 melanoma was > 75 µM in each case.
As to `CN1C(CC(O)c2ccccc2)CCCC1CC(O)(c1ccccc1)c1ccccc1` (centres undefined), the TGI in the assay with U251 CNS is 28.4 µM; in the assay with RPMI-8226 leukemia it was 41.1 µM; in the assay with HT29 colon, 31.8 µM; in the assay on SNB-19 CNS, 36.3 µM; in the assay with OVCAR-3 ovarian, 31.3 µM; in the assay on SNB-75 CNS, 44.8 µM. The TGI in the assay with SW-620 colon turned out to be 39 µM; in the assay with MDA-N, 33.5 µM; in the assay with UACC-62 melanoma, 40.7 µM; with MDA-MB-231 breast, 48.8 µM; in the assay with SF-295 CNS it was 30.8 µM; with A549 NSCLC, 50 µM. The TGI in the assay on NCI/ADR-RES ovarian was 33.5 µM; in the assay on HCC-2998 colon it was 37.8 µM; in the assay on HL-60(TB) leukemia it was 41.8 µM; in the assay on SK-MEL-28 melanoma it was 30.9 µM.
On to `c1cc2nnc1SCCSCCCSCCS2`, for which the TGI was > 100 µM in the assay on U251 CNS; > 100 µM with RPMI-8226 leukemia; > 100 µM with HT29 colon; > 100 µM in the assay with SNB-19 CNS; > 100 µM in the assay with OVCAR-3 ovarian; 41.2 µM with SNB-75 CNS. Moreover, the TGI in the assay with SW-620 colon, in the assay with MDA-N, in the assay on UACC-62 melanoma, with SK-MEL-2 melanoma, in the assay on MDA-MB-231 breast and in the assay on SF-295 CNS was > 100 µM throughout. Further, the TGI in the assay with A549 NSCLC, with NCI/ADR-RES ovarian, in the assay with HCC-2998 colon, with HL-60(TB) leukemia and in the assay on SK-MEL-28 melanoma was > 100 µM throughout.
For `CCOC(=O)c1nc2ccc(C(F)(F)F)cc2nc1NCc1ccc(F)cc1`, the TGI in the assay on U251 CNS, in the assay with RPMI-8226 leukemia, in the assay with HT29 colon, in the assay with SNB-19 CNS, in the assay on OVCAR-3 ovarian and in the assay with SNB-75 CNS was > 100 µM throughout. Moreover, the TGI in the assay with SW-620 colon, in the assay on MDA-N, with UACC-62 melanoma, in the assay on SK-MEL-2 melanoma, with MDA-MB-231 breast and in the assay on SF-295 CNS was > 100 µM in each case. The TGI is > 100 µM in the assay on A549 NSCLC; > 100 µM in the assay on NCI/ADR-RES ovarian; 78.3 µM with HCC-2998 colon; > 100 µM in the assay on HL-60(TB) leukemia; > 100 µM with SK-MEL-28 melanoma.
`Cc1[nH]c2[nH]c(=S)nc(NC(N)=S)c2c1Cc1ccccc1`: the TGI was > 100 µM in the assay on U251 CNS; 55.3 µM in the assay on RPMI-8226 leukemia; 52 µM in the assay with HT29 colon; > 100 µM with SNB-19 CNS; 36.3 µM in the assay with BT-549 breast; 77.4 µM in the assay on OVCAR-3 ovarian. Also, the TGI with SNB-75 CNS is 76.4 µM; in the assay with SW-620 colon it was > 100 µM; with MDA-N, 69.1 µM; in the assay with UACC-62 melanoma, > 100 µM; with SK-MEL-2 melanoma it was > 100 µM; in the assay with MDA-MB-231 breast, > 100 µM. Also, the TGI in the assay on SF-295 CNS was > 100 µM; in the assay on A549 NSCLC, > 100 µM; in the assay with NCI/ADR-RES ovarian, > 100 µM; with HL-60(TB) leukemia, 57.4 µM; in the assay on SK-MEL-28 melanoma, 48.6 µM.
For the molecule `COc1ccc(OC)c2c1ccc1c(C)c3ccccc3c(C)c12`, the TGI with U251 CNS, with RPMI-8226 leukemia, with HT29 colon, in the assay on SNB-19 CNS, with BT-549 breast and in the assay on OVCAR-3 ovarian was > 100 µM throughout. In addition, the TGI in the assay with SNB-75 CNS was > 100 µM; in the assay with MDA-N, > 100 µM; with UACC-62 melanoma, > 100 µM; in the assay on SK-MEL-2 melanoma it was > 100 µM; with MDA-MB-231 breast, > 100 µM; in the assay with HCC-2998 colon it was 45.8 µM. The TGI in the assay on HL-60(TB) leukemia and with SK-MEL-28 melanoma was > 100 µM each time.
Regarding `O=c1oc2ccccc2c(O)c1Cc1ccccc1Cc1c(O)c2ccccc2oc1=O`, the TGI in the assay with U251 CNS, with RPMI-8226 leukemia, in the assay with HT29 colon, in the assay on SNB-19 CNS, with BT-549 breast and with OVCAR-3 ovarian was > 100 µM throughout. In addition, the TGI in the assay on SNB-75 CNS, in the assay with SW-620 colon, in the assay with MDA-N, in the assay on UACC-62 melanoma, in the assay on SK-MEL-2 melanoma and with MDA-MB-231 breast was > 100 µM in each case. Further, the TGI in the assay on SF-295 CNS, with A549 NSCLC, in the assay on NCI/ADR-RES ovarian, with HL-60(TB) leukemia and in the assay with SK-MEL-28 melanoma was > 100 µM each time.
